From PubChem BioAssay (NCI)
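Where inhibition never reached the appropriate level, the endpoint shown equals the highest concentration tested. Otherwise, values were interpolated linearly from a five-concentration, 48-hour dose response in 96-well plates. The concentration for 50% growth inhibition is given as GI50. TGI marks complete inhibition of growth.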

Tests used:
Assay in all cases: inhibition of tumour cell growth, NCI panel, 48 h
K-562 leukemia = system: K-562 leukemia
LOX IMVI melanoma = system: LOX IMVI melanoma
SF-268 CNS = system: SF-268 CNS
HOP-62 NSCLC = system: HOP-62 NSCLC
KM12 colon = system: KM12 colon
IGROV1 ovarian = system: IGROV1 ovarian
OVCAR-4 ovarian = system: OVCAR-4 ovarian
SF-539 CNS = system: SF-539 CNS
SK-MEL-2 melanoma = system: SK-MEL-2 melanoma
ACHN renal = system: ACHN renal
HS 578T breast = system: HS 578T breast
SNB-19 CNS = system: SNB-19 CNS
COLO 205 colon = system: COLO 205 colon
NCI/ADR-RES ovarian = system: NCI/ADR-RES ovarian
MCF7 breast = system: MCF7 breast
SN12C renal = system: SN12C renal
PC-3 prostate = system: PC-3 prostate
DU-145 prostate = system: DU-145 prostate
NCI-H522 lung = system: NCI-H522 lung
A498 renal = system: A498 renal
U251 CNS = system: U251 CNS
SW-620 colon = system: SW-620 colon
EKVX NSCLC = system: EKVX NSCLC
A549 NSCLC = system: A549 NSCLC
HT29 colon = system: HT29 colon
SF-295 CNS = system: SF-295 CNS
MOLT-4 leukemia = system: MOLT-4 leukemia
RXF 393 renal = system: RXF 393 renal
NCI-H23 lung = system: NCI-H23 lung
OVCAR-3 ovarian = system: OVCAR-3 ovarian
CAKI-1 renal = system: CAKI-1 renal
M14 melanoma = system: M14 melanoma
MDA-MB-435 = system: MDA-MB-435
SK-MEL-28 melanoma = system: SK-MEL-28 melanoma
NCI-H460 lung = system: NCI-H460 lung
786-0 renal = system: 786-0 renal
RPMI-8226 leukemia = system: RPMI-8226 leukemia
SK-MEL-5 melanoma = system: SK-MEL-5 melanoma
HOP-92 NSCLC = system: HOP-92 NSCLC
OVCAR-8 ovarian = system: OVCAR-8 ovarian
UACC-62 melanoma = system: UACC-62 melanoma
HL-60(TB) leukemia = system: HL-60(TB) leukemia
UO-31 renal = system: UO-31 renal
BT-549 breast = system: BT-549 breast
HCT-116 colon = system: HCT-116 colon
NCI-H226 lung = system: NCI-H226 lung
MDA-MB-231 breast = system: MDA-MB-231 breast
OVCAR-5 ovarian = system: OVCAR-5 ovarian
UACC-257 melanoma = system: UACC-257 melanoma
HCT-15 colon = system: HCT-15 colon
SNB-75 CNS = system: SNB-75 CNS
SK-OV-3 ovarian = system: SK-OV-3 ovarian
T-47D breast = system: T-47D breast

Structure (SMILES): O=C(Nc1ccc(Cl)cc1)c1ccc(NC2=C(Cl)C(=O)N(Cc3ccccc3)C2=O)cc1
- GI50 (K-562 leukemia): 3.29 µM
- TGI (K-562 leukemia): 48.9 µM
- GI50 (LOX IMVI melanoma): 12.7 µM
- TGI (LOX IMVI melanoma): 32.7 µM
- GI50 (SF-268 CNS): 17.8 µM
- TGI (SF-268 CNS): 50.2 µM
- GI50 (HOP-62 NSCLC): 14.1 µM
- TGI (HOP-62 NSCLC): 27.7 µM
- GI50 (KM12 colon): 21.1 µM
- TGI (KM12 colon): 56.7 µM
- GI50 (IGROV1 ovarian): 0.98 µM
- TGI (IGROV1 ovarian): 6.22 µM
- GI50 (OVCAR-4 ovarian): 18.3 µM
- TGI (OVCAR-4 ovarian): 43.4 µM
- GI50 (SF-539 CNS): 17.5 µM
- TGI (SF-539 CNS): 41.3 µM
- GI50 (SK-MEL-2 melanoma): 14.2 µM
- TGI (SK-MEL-2 melanoma): 40.4 µM
- GI50 (ACHN renal): 15.7 µM
- TGI (ACHN renal): 35.3 µM
- GI50 (HS 578T breast): 18.4 µM
- TGI (HS 578T breast): 49.8 µM
- GI50 (SNB-19 CNS): 23.2 µM
- TGI (SNB-19 CNS): 76.6 µM
- GI50 (COLO 205 colon): 30.3 µM
- TGI (COLO 205 colon): > 100 µM
- GI50 (NCI/ADR-RES ovarian): 4.14 µM
- TGI (NCI/ADR-RES ovarian): 14.8 µM
- GI50 (MCF7 breast): 15.3 µM
- TGI (MCF7 breast): 33.8 µM
- GI50 (SN12C renal): 7.67 µM
- TGI (SN12C renal): 25.1 µM
- GI50 (PC-3 prostate): 11.4 µM
- TGI (PC-3 prostate): 27.1 µM
- GI50 (DU-145 prostate): 14.4 µM
- TGI (DU-145 prostate): 38.6 µM
- GI50 (NCI-H522 lung): 8.55 µM
- TGI (NCI-H522 lung): 30.7 µM
- GI50 (A498 renal): 17.7 µM
- TGI (A498 renal): 47.8 µM
- GI50 (U251 CNS): 8.07 µM
- TGI (U251 CNS): 20.4 µM
- GI50 (SW-620 colon): 6.36 µM
- TGI (SW-620 colon): > 100 µM
- GI50 (EKVX NSCLC): 26.7 µM
- TGI (EKVX NSCLC): 89.5 µM
- GI50 (A549 NSCLC): 16.3 µM
- TGI (A549 NSCLC): 39.9 µM
- GI50 (HT29 colon): 20 µM
- TGI (HT29 colon): > 100 µM
- GI50 (SF-295 CNS): 5.8 µM
- TGI (SF-295 CNS): 19.9 µM
- GI50 (MOLT-4 leukemia): 3.26 µM
- TGI (MOLT-4 leukemia): 44.8 µM
- GI50 (RXF 393 renal): 18.3 µM
- TGI (RXF 393 renal): 44.9 µM
- GI50 (NCI-H23 lung): 12.9 µM
- TGI (NCI-H23 lung): 28.6 µM
- GI50 (OVCAR-3 ovarian): 12.6 µM
- TGI (OVCAR-3 ovarian): 28 µM
- GI50 (CAKI-1 renal): 15.3 µM
- TGI (CAKI-1 renal): 31.5 µM
- GI50 (M14 melanoma): 15.2 µM
- TGI (M14 melanoma): 35.8 µM
- GI50 (MDA-MB-435): 12.7 µM
- TGI (MDA-MB-435): 33.1 µM
- GI50 (SK-MEL-28 melanoma): 17.4 µM
- TGI (SK-MEL-28 melanoma): 37.9 µM
- GI50 (NCI-H460 lung): 25.1 µM
- TGI (NCI-H460 lung): > 100 µM
- GI50 (786-0 renal): 10.8 µM
- TGI (786-0 renal): 24.4 µM
- GI50 (RPMI-8226 leukemia): 2.7 µM
- TGI (RPMI-8226 leukemia): 12.4 µM
- GI50 (SK-MEL-5 melanoma): 31.1 µM
- TGI (SK-MEL-5 melanoma): 99.3 µM
- GI50 (HOP-92 NSCLC): 9.19 µM
- TGI (HOP-92 NSCLC): 25.1 µM
- GI50 (OVCAR-8 ovarian): 7.92 µM
- TGI (OVCAR-8 ovarian): 28.1 µM
- GI50 (UACC-62 melanoma): 17.9 µM
- TGI (UACC-62 melanoma): 44.3 µM
- GI50 (HL-60(TB) leukemia): 6.23 µM
- TGI (HL-60(TB) leukemia): > 100 µM
- GI50 (UO-31 renal): 14.7 µM
- TGI (UO-31 renal): 29.8 µM
- GI50 (BT-549 breast): 15.3 µM
- TGI (BT-549 breast): 34.2 µM
- GI50 (HCT-116 colon): 2.41 µM
- TGI (HCT-116 colon): 7.59 µM
- GI50 (NCI-H226 lung): 11.2 µM
- TGI (NCI-H226 lung): 28.4 µM
- GI50 (MDA-MB-231 breast): 13.9 µM
- TGI (MDA-MB-231 breast): 38.1 µM
- GI50 (OVCAR-5 ovarian): 14.1 µM
- TGI (OVCAR-5 ovarian): 28.1 µM
- GI50 (UACC-257 melanoma): 22.2 µM
- TGI (UACC-257 melanoma): 63.5 µM
- GI50 (HCT-15 colon): 24.4 µM
- TGI (HCT-15 colon): > 100 µM
- GI50 (SNB-75 CNS): 20.1 µM
- TGI (SNB-75 CNS): 52.5 µM
- GI50 (SK-OV-3 ovarian): 32.9 µM
- TGI (SK-OV-3 ovarian): > 100 µM
- GI50 (T-47D breast): 20.6 µM
- TGI (T-47D breast): 67.3 µM
